Measurements from PubChem BioAssay (NCI).
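Method: 48-hour compound exposure of cells in 96-well plates, five concentrations, linear interpolation of endpoints. Definition used: TGI = concentration required for complete inhibition of growth.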

Key:
Experiment in all cases: NCI tumour cell line growth inhibition, 48 h
[1] = test system: 786-0 renal
[2] = test system: A498 renal
[3] = test system: ACHN renal
[4] = test system: COLO 205 colon
[5] = test system: DU-145 prostate
[6] = test system: EKVX NSCLC
[7] = test system: HOP-62 NSCLC
[8] = test system: HT29 colon
[9] = test system: MDA-MB-231 breast
[10] = test system: MDA-MB-435
[11] = test system: NCI-H460 lung
[12] = test system: NCI-H522 lung
[13] = test system: SF-268 CNS
[14] = test system: SF-295 CNS
[15] = test system: SK-OV-3 ovarian
[16] = test system: T-47D breast
[17] = test system: TK-10 renal
[18] = test system: U251 CNS
[19] = test system: UO-31 renal

SMILES	TGI [1] [µM]	TGI [2] [µM]	TGI [3] [µM]	TGI [4] [µM]	TGI [5] [µM]	TGI [6] [µM]	TGI [7] [µM]	TGI [8] [µM]	TGI [9] [µM]	TGI [10] [µM]	TGI [11] [µM]	TGI [12] [µM]	TGI [13] [µM]	TGI [14] [µM]	TGI [15] [µM]	TGI [16] [µM]	TGI [17] [µM]	TGI [18] [µM]	TGI [19] [µM]
COc1cc(OCc2nc3ccccc3n3cccc23)cc(OC)c1OC	> 74.3	> 100	> 100	> 82.3	> 100	> 62.7	> 100	> 100	> 100	> 52.4	> 100	> 65.9	> 100	> 100	> 100	> 100	> 88.6	> 100	> 89.6
COC(=O)c1cc2c(o1)Sc1ccccc1NC2=O	> 100	> 100	> 100	> 100	> 100	–	> 100	> 100	> 100	> 100	> 100	> 100	> 100	> 100	> 100	> 100	> 100	> 100	–
CC[C@](O)(CC(=O)O[C@H]1C(=O)O[C@@H]2C[C@H]3C(C)=CC(=O)[C@@H](O)[C@]3(C)[C@H]3[C@@]4(O)OC[C@]32[C@@H]1[C@@H](C)[C@H]4O)C(C)C	< 0.01	< 0.01	< 0.01	< 0.01	< 0.01	< 0.01	< 0.01	< 0.01	< 0.0119	< 0.01	< 0.01	< 0.01	< 0.01	< 0.01	< 0.01	< 0.01	< 0.01	< 0.01	0.0447
Cc1c(C)c2c(c(N)c1C#N)C(=O)N(CCc1ccccc1)C2=O	> 100	> 100	> 100	> 100	> 100	> 100	–	–	> 100	> 100	> 100	> 100	> 100	> 100	–	> 100	> 100	> 100	> 100
CC(C)(C)[Si](C)(C)O[C@@H](C(=O)OC1C=CCCC1)[C@@H](NC(=O)c1ccccc1)c1ccccc1 (stereo partly specified)	> 100	> 100	62.9	76.8	> 100	> 100	> 100	49.5	> 100	> 100	42.2	63.6	> 100	65.1	> 100	98	> 100	> 100	> 100
CN(C)C=Nc1cccc2nsnc12	> 100	> 100	> 100	> 100	> 100	> 100	> 100	> 100	> 100	> 100	–	> 100	> 100	> 100	> 100	> 100	> 100	> 100	> 100
COc1ccc2cc(CNCCCCCCCCCCCCNCc3ccc4cc(OC)ccc4c3)ccc2c1	30.1	31.9	36.6	> 55.9	> 56.1	37.6	39.2	23	> 51.5	> 55.5	35.8	33.8	27.2	42.2	32.7	49.9	32.8	43.8	35.8
O=C(c1cc(Cl)cc(Cl)c1)N(C(=O)N1CCN(c2ccccc2)CC1)c1ccccc1	> 100	> 100	> 100	39.6	> 100	> 100	> 100	> 100	> 100	48.5	> 100	> 100	> 100	> 100	> 100	> 100	> 100	> 100	> 100
CCN(CC)C1Oc2cc3c(cc2C(c2ccc(OC)cc2)C1C)OCO3 (stereo unspecified)	48	48.2	59.6	34.5	76.4	49.9	54.9	34.7	49.2	39.1	37.2	35.8	50.1	63.1	97.4	77	56.2	54.9	64.9
CC(=O)C(I(OS(=O)(=O)c1ccc(C)cc1)c1ccccc1)=P(c1ccccc1)(c1ccccc1)c1ccccc1	> 100	> 100	> 100	31.4	58.7	70.8	59.6	49.6	69.3	32.4	> 100	24.5	80.4	> 100	> 100	85.3	> 100	98.5	> 100
COc1ccc(/C=C2\CCC(CNc3cc(C)on3)C2=O)cc1 (stereo unspecified)	> 100	> 100	> 100	> 100	> 100	> 100	> 100	> 100	> 100	> 100	> 100	> 100	> 100	> 100	> 100	> 91.1	> 100	> 100	> 100
Cc1ccc(-n2cnc3c(N)nc(N)nc32)cc1	> 100	> 100	> 100	> 100	> 100	> 100	> 100	> 100	> 100	> 100	–	> 100	> 100	> 100	> 100	> 100	> 100	> 100	> 100
